# Test results from ChEMBL document CHEMBL1759971, “Substituted phenyl triazoles as selective inhibitors of 11β-Hydroxysteroid Dehydrogenase Type 1” (Bioorg Med Chem Lett, 2011).
# How the values were obtained:
# Mus musculus [1] = test: Inhibition of 11beta-HSD1 in ICR mouse assessed as conversion of [3H]cortisone to [3H]cortisol at 10 mg/kg, po after 4 hrs by scintillation counting; assay type: functional
# [2] = target: T1, Nuclear receptor subfamily 1 group I member 2 (Homo sapiens, UniProt O75469); test: Agonist activity at PXR; assay type: functional
# T1 sequence (O75469 whole entry): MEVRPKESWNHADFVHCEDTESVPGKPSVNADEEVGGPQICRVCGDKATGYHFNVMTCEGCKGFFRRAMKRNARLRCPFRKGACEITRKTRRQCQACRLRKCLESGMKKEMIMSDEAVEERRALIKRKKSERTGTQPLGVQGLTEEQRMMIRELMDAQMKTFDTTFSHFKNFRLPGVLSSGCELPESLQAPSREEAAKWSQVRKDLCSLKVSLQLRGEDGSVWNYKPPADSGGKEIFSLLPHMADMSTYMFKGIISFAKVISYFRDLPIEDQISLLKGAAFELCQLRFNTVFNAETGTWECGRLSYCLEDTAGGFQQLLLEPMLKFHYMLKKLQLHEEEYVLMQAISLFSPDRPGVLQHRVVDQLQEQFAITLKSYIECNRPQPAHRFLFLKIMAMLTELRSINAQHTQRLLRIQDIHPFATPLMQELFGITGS
# [3] = target: T1, Nuclear receptor subfamily 1 group I member 2; test: Agonist activity at PXR at 10 uM; assay type: functional
# [4] = target: 11-beta-hydroxysteroid dehydrogenase 1 (Homo sapiens, UniProt P28845); test: Inhibition of human 11beta-HSD1 expressed in CHO-K1 cells assessed as conversion of [3H]cortisone to [3H]cortisol by scintillation counting; assay type: cell-based
# 11-beta-hydroxysteroid dehydrogenase 1 (Homo sapiens, UniProt P28845), sequence (P28845 whole entry): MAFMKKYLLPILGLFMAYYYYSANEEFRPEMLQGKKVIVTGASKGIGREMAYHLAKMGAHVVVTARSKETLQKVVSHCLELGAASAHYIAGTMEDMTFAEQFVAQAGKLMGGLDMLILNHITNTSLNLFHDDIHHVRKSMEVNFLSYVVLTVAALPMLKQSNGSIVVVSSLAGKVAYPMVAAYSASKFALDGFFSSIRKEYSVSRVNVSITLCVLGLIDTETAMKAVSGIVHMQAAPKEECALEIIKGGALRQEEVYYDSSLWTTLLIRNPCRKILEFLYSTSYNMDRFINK
# [5] = target: 11-beta-hydroxysteroid dehydrogenase 1 (Mus musculus, UniProt P50172); test: Inhibition of mouse 11beta-HSD1 expressed in CHO-K1 cells assessed as conversion of [3H]cortisone to [3H]cortisol by scintillation counting; assay type: cell-based
# 11-beta-hydroxysteroid dehydrogenase 1 (Mus musculus, UniProt P50172), sequence (P50172 whole entry): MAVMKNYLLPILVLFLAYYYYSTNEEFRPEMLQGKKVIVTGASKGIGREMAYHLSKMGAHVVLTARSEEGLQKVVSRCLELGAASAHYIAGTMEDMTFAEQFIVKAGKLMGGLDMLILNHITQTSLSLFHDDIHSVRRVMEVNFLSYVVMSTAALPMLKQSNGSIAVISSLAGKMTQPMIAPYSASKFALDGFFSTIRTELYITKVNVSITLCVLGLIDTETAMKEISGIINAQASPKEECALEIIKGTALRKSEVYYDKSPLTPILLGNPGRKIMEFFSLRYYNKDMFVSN
# Mus musculus [6] = test: Inhibition of 11beta-HSD1 in ICR mouse assessed as conversion of [3H]cortisone to [3H]cortisol at 10 mg/kg, po after 16 hrs by scintillation counting; assay type: functional
# [7] = Blood clearance in C57BL/6 mouse; assay type: ADME, organism-based
# [8] = Half life in C57BL/6 mouse; assay type: ADME, organism-based; settings: in vivo
# [9] = Oral bioavailability in C57BL/6 mouse; assay type: ADME, organism-based; settings: in vivo
# Cytochrome P450 3A4 = Cytochrome P450 3A4 (Homo sapiens, UniProt P08684); test: Inhibition of CYP3A4; assay type: ADME
# Cytochrome P450 3A4, sequence (P08684 whole entry): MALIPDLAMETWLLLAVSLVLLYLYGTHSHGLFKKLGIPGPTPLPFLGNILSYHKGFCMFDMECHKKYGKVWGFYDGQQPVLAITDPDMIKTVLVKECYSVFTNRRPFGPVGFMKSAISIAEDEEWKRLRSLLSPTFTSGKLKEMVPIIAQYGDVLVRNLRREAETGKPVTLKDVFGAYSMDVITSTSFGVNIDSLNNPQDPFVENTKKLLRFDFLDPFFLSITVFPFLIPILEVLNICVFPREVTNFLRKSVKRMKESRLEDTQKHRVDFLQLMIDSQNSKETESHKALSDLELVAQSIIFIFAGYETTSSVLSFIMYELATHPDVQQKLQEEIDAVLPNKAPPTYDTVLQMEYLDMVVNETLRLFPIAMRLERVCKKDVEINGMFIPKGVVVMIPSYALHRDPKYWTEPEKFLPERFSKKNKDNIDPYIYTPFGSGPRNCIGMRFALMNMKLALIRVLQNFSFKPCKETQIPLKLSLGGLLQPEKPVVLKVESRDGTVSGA
# Cytochrome P450 2C9 = Cytochrome P450 2C9 (Homo sapiens, UniProt P11712); test: Inhibition of CYP2C9; assay type: ADME
# Cytochrome P450 2C9, sequence (P11712 whole entry): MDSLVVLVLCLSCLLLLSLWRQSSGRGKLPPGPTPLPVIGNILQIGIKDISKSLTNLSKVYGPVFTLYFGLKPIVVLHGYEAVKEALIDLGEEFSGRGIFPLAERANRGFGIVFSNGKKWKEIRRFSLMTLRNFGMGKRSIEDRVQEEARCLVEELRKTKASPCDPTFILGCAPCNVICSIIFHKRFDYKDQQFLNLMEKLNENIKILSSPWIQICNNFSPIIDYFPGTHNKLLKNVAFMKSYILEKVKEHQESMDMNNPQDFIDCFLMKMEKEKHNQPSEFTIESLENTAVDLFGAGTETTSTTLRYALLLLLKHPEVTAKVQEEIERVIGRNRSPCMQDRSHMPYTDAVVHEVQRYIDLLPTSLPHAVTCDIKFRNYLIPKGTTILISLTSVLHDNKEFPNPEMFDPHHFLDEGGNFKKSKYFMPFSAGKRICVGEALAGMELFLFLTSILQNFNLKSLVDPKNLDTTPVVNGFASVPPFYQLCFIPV
# Cytochrome P450 2D6 = Cytochrome P450 2D6 (Homo sapiens, UniProt P10635); test: Inhibition of CYP2D6; assay type: ADME
# Cytochrome P450 2D6, sequence (P10635 whole entry): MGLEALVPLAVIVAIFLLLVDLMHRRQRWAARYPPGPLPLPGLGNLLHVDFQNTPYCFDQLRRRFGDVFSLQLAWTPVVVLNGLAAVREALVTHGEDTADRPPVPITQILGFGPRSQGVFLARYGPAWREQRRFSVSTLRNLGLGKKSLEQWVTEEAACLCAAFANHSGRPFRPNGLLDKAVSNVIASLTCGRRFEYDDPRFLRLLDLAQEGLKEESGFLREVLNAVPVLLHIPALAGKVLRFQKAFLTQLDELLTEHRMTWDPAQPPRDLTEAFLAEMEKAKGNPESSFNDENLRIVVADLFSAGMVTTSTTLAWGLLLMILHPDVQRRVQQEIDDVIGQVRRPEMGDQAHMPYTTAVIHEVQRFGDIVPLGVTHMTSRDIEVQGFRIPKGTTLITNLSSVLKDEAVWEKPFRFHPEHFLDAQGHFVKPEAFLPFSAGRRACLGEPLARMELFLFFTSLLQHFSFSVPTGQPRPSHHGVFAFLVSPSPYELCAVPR
# [10] = target: T2, 11-beta-hydroxysteroid dehydrogenase type 2 (Homo sapiens, UniProt P80365); test: Inhibition of human 11beta-HSD2
# T2 sequence (P80365 whole entry): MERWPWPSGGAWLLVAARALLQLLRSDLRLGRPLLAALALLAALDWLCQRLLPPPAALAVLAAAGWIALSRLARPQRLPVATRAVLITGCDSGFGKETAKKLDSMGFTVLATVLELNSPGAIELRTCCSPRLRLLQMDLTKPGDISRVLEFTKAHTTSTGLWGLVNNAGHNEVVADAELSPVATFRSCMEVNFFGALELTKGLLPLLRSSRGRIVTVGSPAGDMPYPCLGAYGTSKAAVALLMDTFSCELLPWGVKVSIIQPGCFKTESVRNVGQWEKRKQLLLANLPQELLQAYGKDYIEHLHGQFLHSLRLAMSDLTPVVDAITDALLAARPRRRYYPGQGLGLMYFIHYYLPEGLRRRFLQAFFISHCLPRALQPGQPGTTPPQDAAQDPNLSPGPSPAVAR
# [11] = target: T3, 11-beta-hydroxysteroid dehydrogenase type 2 (Mus musculus, UniProt P51661); test: Inhibition of mouse 11beta-HSD2
# T3 sequence (P51661 whole entry): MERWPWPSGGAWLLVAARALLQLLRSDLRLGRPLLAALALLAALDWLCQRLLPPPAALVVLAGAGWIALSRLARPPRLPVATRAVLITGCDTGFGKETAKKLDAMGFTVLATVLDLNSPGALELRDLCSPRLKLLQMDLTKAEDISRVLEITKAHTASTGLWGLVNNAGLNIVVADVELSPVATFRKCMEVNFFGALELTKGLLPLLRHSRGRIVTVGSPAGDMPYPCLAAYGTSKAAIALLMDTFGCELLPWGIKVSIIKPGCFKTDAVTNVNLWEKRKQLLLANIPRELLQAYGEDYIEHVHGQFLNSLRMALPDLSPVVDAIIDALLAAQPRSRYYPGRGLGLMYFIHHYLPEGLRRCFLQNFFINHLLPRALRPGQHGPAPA
# Mus musculus [12] = test: Inhibition of 11beta-HSD1 in ICR mouse assessed as conversion of [3H]cortisone to [3H]cortisol at 10 mg/kg, po after 1 hr by scintillation counting; assay type: functional
Structure (SMILES),inhibition in vivo at 10 mg/kg (Mus musculus [1]) [%],EC50 [2] [µM],Activity [3] [%],IC50 [4] [µM],IC50 [5] [µM],inhibition in vivo at 10 mg/kg (Mus musculus [6]) [%],clearance [7] [mL/min/kg],half-life [8] [h],bioavailability [9] [%],IC50 (Cytochrome P450 3A4) [µM],IC50 (Cytochrome P450 2C9) [µM],IC50 (Cytochrome P450 2D6) [µM],IC50 [10] [µM],IC50 [11] [µM],inhibition in vivo at 10 mg/kg (Mus musculus [12]) [%]
Cn1c(-c2ccc(-c3cnccn3)cc2)nnc1C1(c2ccc(Cl)cc2)CCC1,93,> 30,23,0.0023,< 0.001,79,54,0.7,30,10,13,16,> 4,> 4,
Cn1c(-c2ccc(NC(=O)c3cccs3)cc2)nnc1C1(c2ccc(Cl)cc2)CCC1,63,8.7,55,0.0087,0.001,2,,,,,,,> 4,> 4,
COc1ncc(-c2ccc(-c3nnc(C4(c5ccc(Cl)cc5)CCC4)n3C)cc2)c(OC)n1,59,> 30,35,0.014,0.002,10,,,,,,,> 4,> 4,
Cn1c(-c2ccc(C(=O)O)cc2)nnc1C1(c2ccc(Cl)cc2)CCC1,10,> 30,-1,0.076,0.087,-8,,,,,,,> 4,> 4,
Cn1c(-c2ccc(-c3cncnc3)cc2)nnc1C1(c2ccc(Cl)cc2)CCC1,46,> 30,7,0.0015,0.0026,-4,,,,,,,> 4,> 4,
COc1cc(-c2cccnc2)ccc1-c1nnc(C2(c3ccc(Cl)cc3)CCC2)n1C,82,4.6,65,0.0015,0.00075,21,,,,,,,> 4,> 4,
Cn1c(-c2ccc(-c3cnccn3)cc2OC(F)F)nnc1C1(c2ccc(Cl)cc2)CCC1,88,> 30,45,0.0037,0.001,14,,,,,,,> 4,> 4,
CC(=O)Nc1ccc(-c2nnc(C3(c4ccc(Cl)cc4)CCC3)n2C)c(Cl)c1,79,> 30,34,< 0.001,< 0.001,27,,,,,,,> 4,> 4,
CCNC(=O)c1ccc(-c2nnc(C3(c4ccc(Cl)cc4)CCC3)n2C)cc1,71,> 30,18,0.069,0.0078,0,,,,,,,> 4,> 4,
Cn1c(-c2ccc(NC(=O)c3cnccn3)cc2)nnc1C1(c2ccc(Cl)cc2)CCC1,67,> 30,-2.5,0.069,0.011,5,,,,,,,> 4,> 4,
Cn1c(-c2ccc(-c3cccnc3)cc2O)nnc1C1(c2ccc(Cl)cc2)CCC1,59,> 30,45,0.038,0.001,10,,,,,,,> 4,> 4,
C1CCCn2c(nnc2C23CC4CC(CC(C4)C2)C3)CC1,21,,,0.0078,0.098,,,,,,,,> 4,> 4,31
Cn1c(-c2ccc(-c3cnccn3)cc2Cl)nnc1C1(c2ccc(Cl)cc2)CC(F)C1 (stereo not given),95,> 30,23,0.0055,0.0023,80,5,6.8,96,36,26,25,> 4,> 4,
Cn1c(-c2ccc(C(=O)N3CCCC3)cc2)nnc1C1(c2ccc(Cl)cc2)CCC1,24,> 30,10,0.65,0.13,0,,,,,,,> 4,> 4,
Cn1c(-c2ccc(C(=O)O)cc2Cl)nnc1C1(c2ccc(Cl)cc2)CCC1,90,18,28,0.011,0.019,38,,,,,,,> 4,> 4,
